pIC50: −log10 of the molar value.
Target: Human neutrophil elastase (Homo sapiens (Human), UniProt P08246)
Assay: Human Neutrophil Elastase Assay
Assay type: biochemical
Conditions: substrate MeOSuc-Ala-Ala-Pro-Val-AMC 250 μM, pH 7.5

Sequence of Human neutrophil elastase (P08246 30-247): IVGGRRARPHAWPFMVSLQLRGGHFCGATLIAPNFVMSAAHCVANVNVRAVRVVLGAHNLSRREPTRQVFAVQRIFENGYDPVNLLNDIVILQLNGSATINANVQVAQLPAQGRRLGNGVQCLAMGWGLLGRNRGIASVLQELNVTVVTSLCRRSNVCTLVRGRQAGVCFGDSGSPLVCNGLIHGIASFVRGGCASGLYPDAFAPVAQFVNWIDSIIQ

SMILES | pIC50
CC(C)NCc1cc(C#N)ccc1C1C2=C(CCC2=O)N(c2cccc(C(F)(F)F)c2)C(=O)N1C (centres unmarked) [Example 9.1] | 8.68
CN1C(=O)N(c2cccc(C(F)(F)F)c2)C2=C(C(=O)CC2)C1c1ccc(C#N)cc1CNC(C)(C)C (centres unmarked) [Example 9.2] | 8.48
CN1C(=O)N(c2cccc(C(F)(F)F)c2)C2=C(C(=O)CC2)C1c1ccc(C#N)cc1CNC1CCOCC1 (centres unmarked) [Example 9.3] | 8.54
CNCc1cc(C#N)ccc1C1C2=C(CCC2=O)N(c2cccc(C(F)(F)F)c2)C(=O)N1C (centres unmarked) [Example 9.4] | 8.66
CN1C(=O)N(c2cccc(C(F)(F)F)c2)C2=C(C(=O)CC2)C1c1ccc(C#N)cc1-c1cnco1 (centres unmarked) [Example 10, 4-[3-Methyl-2,5-dioxo-1-(3-trifluoromethyl-phenyl)-2,3,4,5,6,7-hexahydro-1H-cyclopentapyrimidin-4-yl]-3-oxazol-5-yl-benzonitrile] | 8.92
CN1C(=O)N(c2cccc(C(F)(F)F)c2)C2=C(C(=O)CC2)C1c1ccc(C#N)cc1-c1ccoc1 (centres unmarked) [Example 11, 3-Furan-3-yl-4-[3-methyl-2,5-dioxo-1-(3-trifluoromethyl-phenyl)-2,3,4,5,6,7-hexahydro-1H-cyclopentapyrimidin-4-yl]-benzonitrile] | 8.48
CN1C(=O)N(c2cccc(C(F)(F)F)c2)C2=C(C(=O)CC2)C1c1ccc(C#N)cc1-c1ccn(C)n1 (centres unmarked) [Example 11.1] | 8.06
CN1C(=O)N(c2cccc(C(F)(F)F)c2)C2=C(C(=O)CC2)C1c1ccc(C#N)cc1-c1cncs1 (centres unmarked) [Example 11.3] | 8.72
CN1C(=O)N(c2cccc(C(F)(F)F)c2)C2=C(C(=O)CC2)C1c1ccc(C#N)cc1C1=CCN(C(=O)OC(C)(C)C)C1 (centres unmarked) [Example 11.4, 3-{5-Cyano-2-[3-methyl-2,5-dioxo-1-(3-trifluoromethyl-phenyl)-2,3,4,5,6,7-hexahydro-1H-cyclopentapyrimidin-4-yl]-phenyl}-2,5-dihydro-pyrrole-1-carboxylic acid tert-butyl ester] | 8.60
CN1C(=O)N(c2cccc(C(F)(F)F)c2)C2=C(C(=O)CC2)C1c1ccc(C#N)cc1C1=CCCO1 (centres unmarked) [Example 11.5] | > 9.00
CN1C(=O)N(c2cccc(C(F)(F)F)c2)C2=C(C(=O)CC2)C1c1ccc(C#N)cc1C1=CCN(C(=O)OC(C)(C)C)CC1 (centres unmarked) [Example 11.6, 4-{5-Cyano-2-[3-methyl-2,5-dioxo-1-(3-trifluoromethyl-phenyl)-2,3,4,5,6,7-hexahydro-1H-cyclopentapyrimidin-4-yl]-phenyl}-3,6-dihydro-2H-pyridine-1-carboxylic acid tert-butyl ester] | 8.77
CN1C(=O)N(c2cccc(C(F)(F)F)c2)C2=C(C(=O)CC2)C1c1ccc(C#N)cc1-c1ccn(C)c(=O)c1 (centres unmarked) [Example 11.7] | 8.92
CN1C(=O)N(c2cccc(C(F)(F)F)c2)C2=C(C(=O)CC2)C1c1ccc(C#N)cc1-c1ccco1 (centres unmarked) [Example 11.8] | 8.48
CN1C(=O)N(c2cccc(C(F)(F)F)c2)C2=C(C(=O)CC2)C1c1ccc(C#N)cc1-c1ccncc1 (centres unmarked) [Example 11.9] | 9.00
CN1C(=O)N(c2cccc(C(F)(F)F)c2)C2=C(C(=O)CC2)C1c1ccc(C#N)cc1-c1cccnc1 (centres unmarked) [Example 11.10] | 8.51
CN1C(=O)N(c2cccc(C(F)(F)F)c2)C2=C(C(=O)CC2)C1c1ccc(C#N)cc1C1=CCOCC1 (centres unmarked) [Example 11.11] | > 9.00
CN1C(=O)N(c2cccc(C(F)(F)F)c2)C2=C(C(=O)CC2)C1c1ccc(C#N)cc1-c1ccc2c(cnn2C)c1 (centres unmarked) [Example 11.12] | 8.10
COc1ccc(-c2cc(C#N)ccc2C2C3=C(CCC3=O)N(c3cccc(C(F)(F)F)c3)C(=O)N2C)cn1 (centres unmarked) [Example 11.13] | 8.41
CN1C(=O)N(c2cccc(C(F)(F)F)c2)C2=C(C(=O)CC2)C1c1ccc(C#N)cc1-c1ccc2c(ccn2C)c1 (centres unmarked) [Example 11.14] | 8.22
CN1C(=O)N(c2cccc(C(F)(F)F)c2)C2=C(C(=O)CC2)C1c1ccc(C#N)cc1-c1ccc2occc2c1 (centres unmarked) [Example 11.15] | 7.80
CN1C(=O)N(c2cccc(C(F)(F)F)c2)C2=C(C(=O)CC2)C1c1ccc(C#N)cc1-c1ccc(=O)n(C)c1 (centres unmarked) [Example 11.16] | > 9.00

SMILES | pIC50
CN1C(=O)N(c2cccc(C(F)(F)F)c2)C2=C(C(=O)CC2)C1c1ccc(C#N)cc1-c1nnco1 (centres unmarked) [Example 13, 4-[3-Methyl-2,5-dioxo-1-(3-trifluoromethyl-phenyl)-2,3,4,5,6,7-hexahydro-1H-cyclopentapyrimidin-4-yl]-3-[1,3,4]oxadiazol-2-yl-benzonitrile] | 8.68
Cc1noc(-c2cc(C#N)ccc2C2C3=C(CCC3=O)N(c3cccc(C(F)(F)F)c3)C(=O)N2C)n1 (centres unmarked) [Example 13.2, 4-[3-Methyl-2,5-dioxo-1-(3-trifluoromethyl-phenyl)-2,3,4,5,6,7-hexahydro-1H-cyclopentapyrimidin-4-yl]-3-(3-methyl-[1,2,4]oxadiazol-5-yl)-benzonitrile] | 8.55
CN1C(=O)N(c2cccc(C(F)(F)F)c2)C2=C(C(=O)CC2)C1c1ccc(C#N)cc1C1=CCNC1 (centres unmarked) [Example 14, 3-(2,5-Dihydro-1H-pyrrol-3-yl)-4-[3-methyl-2,5-dioxo-1-(3-trifluoromethyl-phenyl)-2,3,4,5,6,7-hexahydro-1H-cyclopentapyrimidin-4-yl]-benzonitrile] | > 9.00
CN1C(=O)N(c2cccc(C(F)(F)F)c2)C2=C(C(=O)CC2)C1c1ccc(C#N)cc1C1=CCNCC1 (centres unmarked) [Example 14.2] | > 9.00
CN1C(=O)N(c2cccc(C(F)(F)F)c2)C2=C(C(=O)CCC2)C1c1ccc(C#N)cc1-c1ccoc1 (centres unmarked) [Example 15, 3-Furan-3-yl-4-[3-methyl-2,5-dioxo-1-(3-trifluoromethyl-phenyl)-1,2,3,4,5,6,7,8-octahydro-quinazolin-4-yl]-benzonitrile] | 8.49
CN1C(=O)N(c2cccc(C(F)(F)F)c2)C2=C(C(=O)CCC2)C1c1ccc(C#N)cc1-c1ccn(C)n1 (centres unmarked) [Example 15.1] | 8.55
CN1C(=O)N(c2cccc(C(F)(F)F)c2)C2=C(C(=O)CCC2)C1c1ccc(C#N)cc1-c1cnn(C)c1 (centres unmarked) [Example 15.2] | 8.62
CN1C(=O)N(c2cccc(C(F)(F)F)c2)C2=C(C(=O)CCC2)C1c1ccc(C#N)cc1-c1cncs1 (centres unmarked) [Example 15.3] | 8.72
CN1C(=O)N(c2cccc(C(F)(F)F)c2)C2=C(C(=O)CCC2)C1c1ccc(C#N)cc1-c1cn[nH]c1 (centres unmarked) [Example 15.4] | 8.80
CN1C(=O)N(c2cccc(C(F)(F)F)c2)C2=C(C(=O)CCC2)C1c1ccc(C#N)cc1-c1ccco1 (centres unmarked) [Example 15.5] | 8.24
CN1C(=O)N(c2cccc(C(F)(F)F)c2)C2=C(C(=O)CCC2)C1c1ccc(C#N)cc1C1=CCN(C(=O)OC(C)(C)C)C1 (centres unmarked) [Example 15.6] | 7.97
CN1C(=O)N(c2cccc(C(F)(F)F)c2)C2=C(C(=O)CCC2)C1c1ccc(C#N)cc1C1=CCOCC1 (centres unmarked) [Example 15.9] | 8.89
CN1C(=O)N(c2cccc(C(F)(F)F)c2)C2=C(C(=O)CCC2)C1c1ccc(C#N)cc1C1=COCC1 (centres unmarked) [Example 15.10] | 8.82
CN1C(=O)N(c2cccc(C(F)(F)F)c2)C2=C(C(=O)CCC2)C1c1ccc(C#N)cc1C1=CCNCC1 (centres unmarked) [Example 16, 4-[3-Methyl-2,5-dioxo-1-(3-trifluoromethyl-phenyl)-1,2,3,4,5,6,7,8-octahydro-quinazolin-4-yl]-3-(1,2,3,6-tetrahydro-pyridin-4-yl)-benzonitrile] | > 9.00
CN1C(=O)N(c2ccnc(C(F)(F)F)c2)C2=C(C(=O)CC2)C1c1ccc(C#N)cc1-c1ccoc1 (centres unmarked) [Example 17, 3-Furan-3-yl-4-[3-methyl-2,5-dioxo-1-(2-trifluoromethyl-pyridin-4-yl)-2,3,4,5,6,7-hexahydro-1H-cyclopentapyrimidin-4-yl]-benzonitrile] | 7.95
CN1C(=O)N(c2ccnc(C(F)(F)F)c2)C2=C(C(=O)CC2)C1c1ccc(C#N)cc1-c1ccn(C)n1 (centres unmarked) [Example 17.1] | 7.30
CN1C(=O)N(c2ccnc(C(F)(F)F)c2)C2=C(C(=O)CC2)C1c1ccc(C#N)cc1C1=CCN(C(=O)OC(C)(C)C)CC1 (centres unmarked) [Example 17.2, 4-{5-Cyano-2-[3-methyl-2,5-dioxo-1-(2-trifluoromethyl-pyridin-4-yl)-2,3,4,5,6,7-hexahydro-1H-cyclopentapyrimidin-4-yl]-phenyl}-3,6-dihydro-2H-pyridine-1-carboxylic acid tert-butyl ester] | 8.34
CN1C(=O)N(c2ccnc(C(F)(F)F)c2)C2=C(C(=O)CC2)C1c1ccc(C#N)cc1-c1ccn(C)c(=O)c1 (centres unmarked) [Example 17.3] | 7.97
CN1C(=O)N(c2ccnc(C(F)(F)F)c2)C2=C(C(=O)CC2)C1c1ccc(C#N)cc1C1=CCNCC1 (centres unmarked) [Example 18, 4-[3-Methyl-2,5-dioxo-1-(2-trifluoromethyl-pyridin-4-yl)-2,3,4,5,6,7-hexahydro-1H-cyclopentapyrimidin-4-yl]-3-(1,2,3,6-tetrahydro-pyridin-4-yl)-benzonitrile] | 8.77
N#Cc1ccc(C2NC(=O)N(c3cccc(C(F)(F)F)c3)C3=C2C(=O)CC3)c(-c2ccoc2)c1 (centres unmarked) [Example 19, 4-[2,5-Dioxo-1-(3-trifluoromethyl-phenyl)-2,3,4,5,6,7-hexahydro-1H-cyclopentapyrimidin-4-yl]-3-furan-3-yl-benzonitrile] | 8.00
